Test results as given in US20250026724A1, “(1,4,5-TRISUBSTITUTED 1H-PYRAZOL-3-YL)OXY-2-ALKYLTHIOALKYL ACIDS AND -ALKYL ACID DERIVATIVES, SALTS THEREOF AND USE THEREOF AS ACTIVE HERBICIDAL INGREDIENTS” (BAYER AKTIENGESELLSCHAFT, priority 2021, published 2025).

Columns and labels:
Assay type in all cases: in vivo
[1] = tested on: Amaranthus retroflexus (AMARE); experiment: Pre-emergence herbicidal effect, greenhouse pot trial; settings: visual rating after about 3 weeks vs untreated controls
Text: (§1) Seeds of monocotyledonous and dicotyledonous weed plants and crop plants are placed in plastic or organic planting pots and covered with soil. The compounds of the invention, formulated in the form of wettable powders (WP) or as emulsion concentrates (EC), are then applied to the surface of the covering soil as aqueous suspension or emulsion with addition of 0.5% additive at a water application rate equivalent to 600 1/ha. After the treatment, the pots are placed in a greenhouse and kept under good growth conditions for the trial plants. After about 3 weeks, the effect of the preparations is rated visually in comparison with untreated controls as percentages. For example, 100% activity=the plants have died, 0% activity=like control plants.
(§2) Tables A1 and A2 below show the effects of selected compounds of the general formula (I) according to Table 1 on various harmful plants and at an application rate corresponding to 320 g/ha or lower, which were obtained by the trial procedure specified above. The appendices “a” and “b” give differentiation by dosage used with otherwise the same harmful plants tested.
(§3) As shown by the results from Tables A1 and A2, compounds of the invention have good pre-emergence herbicidal efficacy against harmful plants, for example against harmful plants such as Amaranthus retroflexus (AMARE) and Polygonum convolvulus (POLCO).

[2] = tested on: Polygonum convolvulus (POLCO); experiment: as above; settings: visual rating after about 3 weeks vs untreated controls
Text: as §1, §2, §3

Lolium rigidum (LOLRI) = experiment: Post-emergence herbicidal action, greenhouse pot trial; settings: Lolium rigidum, 504 h, 320 g/ha, visual rating after about 3 weeks, read-out: Post-emergence effect at 320 g/ha against LOLRI in %
Outline: (§4)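 Greenhouse-grown plants, sown in sandy loam, sprayed at the one-leaf stage (2–3 weeks after sowing) with WP or EC formulations in water plus 0.5% additive, 600 l/ha. Rates of 320 g/ha or lower. Visual rating after about 3 weeks versus untreated controls (100% = dead, 0% = as control).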

[3] = tested on: Alopecurus myosuroides (ALOMY); experiment: as above; settings: Alopecurus myosuroides, 504 h, 320 g/ha, visual rating after about 3 weeks, read-out: Post-emergence effect at 320 g/ha against ALOMY in %
Outline: as §4

[4] = tested on: Abutilon theophrasti (ABUTH); experiment: as above; settings: Abutilon theophrasti, 504 h, 320 g/ha, visual rating after about 3 weeks, read-out: Post-emergence effect at 320 g/ha against ABUTH in %
Outline: as §4

[5] = tested on: Polygonum convolvulus (POLCO); experiment: as above; settings: Fallopia convolvulus, 504 h, visual rating after about 3 weeks
Outline: as §4

Viola tricolor (VIOTR) = experiment: as above; settings: Viola tricolor, 504 h, 320 g/ha, read-out: Post-emergence effect against VIOTR
Outline: as §4

[6] = tested on: Echinochloa crus-galli (ECHCG); experiment: as above; settings: Echinochloa crus-galli, 504 h, visual rating after about 3 weeks
Outline: as §4

[7] = tested on: Pharbitis purpurea (PHBPU); experiment: as above; settings: Ipomoea purpurea, 504 h, 320 g/ha, visual rating after about 3 weeks, read-out: Post-emergence effect at 320 g/ha against PHBPU in %
Outline: as §4

Setaria viridis (SETVI) = experiment: as above; settings: Setaria viridis, 504 h, 320 g/ha, visual rating after about 3 weeks, read-out: Post-emergence effect at 320 g/ha against SETVI in %
Outline: as §4

[8] = tested on: Matricaria inodora (MATIN); experiment: as above; settings: Tripleurospermum inodorum, 504 h, visual rating after about 3 weeks
Outline: as §4

Oryza sativa (ORYSA) = experiment: Post-emergence crop plant compatibility, greenhouse pot trial; settings: in comparison to untreated controls
Description: (§5) Seeds of monocotyledonous and dicotyledonous weeds and crop plants are placed in sandy loam in plastic or organic planting pots, covered with soil and cultivated in a greenhouse under controlled growth conditions. 2 to 3 weeks after sowing, the trial plants are treated at the one-leaf stage. The compounds of the invention, formulated in the form of wettable powders (WP) or as emulsion concentrates (EC), are then sprayed onto the green parts of the plants as aqueous suspension or emulsion with addition of 0.5% additive at a water application rate equivalent to 600 l/ha. After about 3 weeks of keeping the trial plants in the greenhouse under optimum growth conditions, the effect of the preparations is rated visually in comparison to untreated controls. For example, 100% activity=the plants have died, 0% activity=like control plants.
(§6) The observed effects on selected crop plants are reported here in comparison to the untreated controls (values in %). The appendices “a”, “b” and “c” give differentiation by dosage used with otherwise the same useful plants tested.
(§7) As shown by results from Tables B1 to B19, inventive compounds of the general formula (I) in the case of post-emergence treatment have good herbicidal efficacy against harmful plants, for example Abutilon theophrasti (ABUTH), Alopecurus myosuroides (ALOMY), Amaranthus retroflexus (AMARE), Avena fatua (AVEFA), Digitaria sanguinalis (DIGSA), Echinochloa crus-galli (ECHCG), Bassia scoparia (KCHSC), Lolium rigidum (LOLRI), Matricaria inodora (MATIN), Pharbitis purpurea (PHBPU), Polygonum convolvulus (POLCO), Setaria viridis (SETVI), Veronica persica (VERPE) and Viola tricolor (VIOTR) at an application rate of 320 g of active substance or less per hectare, and good crop plant compatibility in the case of organisms such as Oryza sativa (ORYSA), Zea mays (ZEAMX), Brassica napus (BRSNW), Glycine max (GLXMA) and Triticum aestivum (TRZAS) at an application rate of 320 g or less per hectare.

[9] = tested on: Triticum aestivum (TRZAS); experiment: as above; settings: post-emergence; for Post-emergence effect against TRZAS (crop plant compatibility): in comparison to untreated controls; for Post-emergence effect at 320 g/ha against TRZAS in %: crop plant compatibility (effect on crop vs untreated controls)
Description: as §5, §6, §7

Brassica napus (BRSNW) = experiment: as above; settings: 20 g/ha, in comparison to untreated controls
Description: as §5, §6, §7

Glycine max (GLXMA) = experiment: as above; settings: in comparison to untreated controls
Description: as §5, §6, §7

Zea mays (ZEAMX) = experiment: as above; settings: in comparison to untreated controls
Description: as §5, §6, §7

Compound | Post-emergence effect against ORYSA (crop plant compatibility) (Oryza sativa (ORYSA); 20 g/ha) | Post-emergence effect against ORYSA (crop plant compatibility) (Oryza sativa (ORYSA); 80 g/ha) | Post-emergence effect against ORYSA (crop plant compatibility) (Oryza sativa (ORYSA); 320 g/ha) | Post-emergence effect against TRZAS (crop plant compatibility) ([9]; 20 g/ha) | Post-emergence effect against TRZAS (crop plant compatibility) ([9]; 80 g/ha) | Post-emergence effect at 320 g/ha against TRZAS in % [9] | Post-emergence effect against BRSNW (crop plant compatibility) (Brassica napus (BRSNW)) | Post-emergence effect against GLXMA (crop plant compatibility) (Glycine max (GLXMA); 20 g/ha) | Post-emergence effect against GLXMA (crop plant compatibility) (Glycine max (GLXMA); 80 g/ha) | Post-emergence effect against ZEAMX (crop plant compatibility) (Zea mays (ZEAMX); 20 g/ha) | Post-emergence effect against ZEAMX (crop plant compatibility) (Zea mays (ZEAMX); 80 g/ha) | Post-emergence effect against ZEAMX (crop plant compatibility) (Zea mays (ZEAMX); 320 g/ha) | also measured
CCOC(=O)C(Oc1nn(-c2ccccc2F)c(-c2ccc(F)nc2)c1Br)SC (centres unmarked) [Example I-01] | – | – | – | – | – | – | – | – | – | – | – | – | Pre-emergence effect at 80 g/ha against AMARE in % ([1]; 80 g/ha): 90%; Pre-emergence effect at 320 g/ha against AMARE in % ([1]; 320 g/ha): 100%; Pre-emergence effect at 80 g/ha against POLCO in % ([2]; 80 g/ha): 80%; Pre-emergence effect at 320 g/ha against POLCO in % ([2]; 320 g/ha): 80%; pest or weed control at 320 g/ha (Lolium rigidum (LOLRI)): 80%; pest or weed control at 320 g/ha [3]: 80%; pest or weed control at 320 g/ha [4]: 80%; pest or weed control at 80 g/ha ([5]; 80 g/ha, read-out: Post-emergence effect at 80 g/ha against POLCO in %): 80%; pest or weed control at 320 g/ha ([5]; 320 g/ha, read-out: Post-emergence effect at 320 g/ha against POLCO in %): 80%; pest or weed control at 320 g/ha (Viola tricolor (VIOTR)): 80%; pest or weed control at 80 g/ha ([6]; 80 g/ha, read-out: Post-emergence effect at 80 g/ha against ECHCG in %): 80%; pest or weed control at 320 g/ha ([6]; 320 g/ha, read-out: Post-emergence effect at 320 g/ha against ECHCG in %): 80%; pest or weed control at 320 g/ha [7]: 90%; pest or weed control at 320 g/ha (Setaria viridis (SETVI)): 80%; pest or weed control at 80 g/ha ([8]; 80 g/ha, read-out: Post-emergence effect at 80 g/ha against MATIN in %): 80%; pest or weed control at 320 g/ha ([8]; 320 g/ha, read-out: Post-emergence effect at 320 g/ha against MATIN in %): 80%
CCOC(=O)C(Oc1nn(-c2ccc(Cl)cc2F)c(-c2ccc(F)cc2F)c1Br)SC (centres unmarked) [Example I-12] | 0% | 0% | 0% | 0% | 0% | 0% | 0% | 0% | 0% | 0% | 0% | 0% | Post-emergence effect against GLXMA (crop plant compatibility) (Glycine max (GLXMA); 320 g/ha): 0%
CCOC(=O)C(Oc1nn(-c2ncccc2F)c(-c2ccc(Cl)cc2)c1Br)SC (centres unmarked) [Example I-15] | 0% | 0% | 0% | 0% | 0% | 10% | 0% | 0% | 10% | 0% | 0% | 10% | –
